Measured values as given in PubChem BioAssay (NCI).
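Compound exposure: 48 hours, 5 concentrations, 96-well plates. TGI: concentration producing complete growth inhibition.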

What was measured:
Test in all cases: DTP human tumour cell line panel, 48 h
[1] = system: 786-0 renal
[2] = system: A549 NSCLC
[3] = system: ACHN renal
[4] = system: CCRF-CEM leukemia
[5] = system: COLO 205 colon
[6] = system: DLD-1 colon
[7] = system: DMS 114 small cell lung
[8] = system: DMS 273 small cell lung
[9] = system: EKVX NSCLC
[10] = system: HCC-2998 colon
[11] = system: HCT-116 colon
[12] = system: HCT-15 colon
[13] = system: HL-60(TB) leukemia
[14] = system: HOP-18 NSCLC
[15] = system: HOP-62 NSCLC
[16] = system: HOP-92 NSCLC
[17] = system: IGROV1 ovarian
[18] = system: K-562 leukemia
[19] = system: KM12 colon
[20] = system: KM20L2 colon
[21] = system: LOX IMVI melanoma
[22] = system: LXFL 529 NSCLC
[23] = system: M14 melanoma
[24] = system: M19-MEL melanoma
[25] = system: MALME-3M melanoma
[26] = system: MOLT-4 leukemia
[27] = system: NCI-H23 lung
[28] = system: NCI-H460 lung
[29] = system: NCI-H522 lung
[30] = system: OVCAR-3 ovarian
[31] = system: OVCAR-5 ovarian
[32] = system: OVCAR-8 ovarian
[33] = system: RPMI-8226 leukemia
[34] = system: RXF 393 renal
[35] = system: SF-268 CNS
[36] = system: SF-295 CNS
[37] = system: SF-539 CNS
[38] = system: SK-MEL-2 melanoma
[39] = system: SK-MEL-28 melanoma
[40] = system: SK-MEL-5 melanoma
[41] = system: SK-OV-3 ovarian
[42] = system: SN12C renal
[43] = system: SNB-19 CNS
[44] = system: SNB-78 CNS
[45] = system: SR leukemia
[46] = system: SW-620 colon
[47] = system: TK-10 renal
[48] = system: U251 CNS
[49] = system: UACC-257 melanoma
[50] = system: UACC-62 melanoma
[51] = system: UO-31 renal
[52] = system: XF 498 CNS
[53] = system: A498 renal
[54] = system: CAKI-1 renal
[55] = system: HT29 colon
[56] = system: NCI-H226 lung
[57] = system: OVCAR-4 ovarian
[58] = system: SNB-75 CNS

Measured: TGI

O=C1c2ccccc2S[C@@H](O)[C@@H]2CCCN12
87.9 µM: [17]
not listed: [53] | [54] | [55] | [56] | [57] | [58]
> 100 µM: all other assays above

CSc1nc(NC2OC(COC(C)=O)C(OC(C)=O)C(OC(C)=O)C2OC(C)=O)c2c(OC(C)=O)c(C)c(=O)oc2n1 (stereo not given)
not listed: [8] | [29] | [35] | [39] | [45]
> 100 µM: all other assays above
